Laboratory results published in patent publication US10519099B2, “Cystobactamides” (priority 2014, dated 2019).
Values after ≈ are worked out from the molar mass of the structure shown. Where two headings read alike, the source gives them in different places.

Key:
[1] = system: Citrobacter freundii DSM-30039; test: MIC microdilution, C. freundii DSM-30039; format: cell-based; conditions: Citrobacter freundii, DSM30039
Description: (§1) Indicator strains used in susceptibility assays were either part of our strain collection or purchased from the German Collection of Microorgansims and Cell Cultures (DSMZ) or from the American Type Culture Collection (ATCC). E. coli strain WT and corresponding E. coli mutants were kindly provided by Prof. Dr. P. Heisig, Pharmaceutical Biology and Microbiology, University of Hamburg. E. coli strains JW0401-1 (WT) and Δtsx were obtained from the CGSC collection.
(§2) MIC values were determined in standardized microdilution assays. Overnight cultures were diluted in the appropriate growth medium to achieve an inoculum of 10^4-10^6 cfu/mL. Yeasts were grown in Myc medium (1% phytone peptone, 1% glucose, 50 mM HEPES, pH 7.0), S. pneumonia and Enterococcus spp. in tryptic soy broth (TSB: 1.7% peptone casein, 0.3% peptone soymeal, 0.25% glucose, 0.5% NaCl, 0.25% K2HPO4; pH 7.3); M. smegmatis in Middlebrook 7H9 medium supplemented with 10% Middlebrook ADC enrichment and 2 ml/I glycerol). All other listed bacteria were grown in Müller-Hinton broth (0.2% beef infusion solids, 1.75% casein hydrolysate, 0.15% starch, pH 7.4). Cystobactamides and reference drugs were added directly to the cultures in sterile 96-well plates as duplicates and serial dilutions were prepared. Microorganisms were grown on a microplate shaker (750 rpm, 30-37° C., 18-48 h), except S. pneumonia, which was grown at non-shaking conditions (37° C., 5% CO2, 18 h). Growth inhibition was assessed by visual inspection and the MIC was defined as the lowest concentration of compound that inhibited visible growth.

E. coli DSM-1116 = test: MIC microdilution, E. coli DSM-1116; format: cell-based, Escherichia coli; conditions: Escherichia coli, DSM1116
Description: as §1, §2

E. coli WT = test: MIC microdilution, E. coli WT; format: cell-based, Escherichia coli; conditions: Escherichia coli
Description: as §1, §2

[2] = system: E. coli WT-3 [gyrA(S83L, D87G)]; test: MIC microdilution, E. coli WT-3 [gyrA(S83L, D87G)]; format: cell-based, Escherichia coli; conditions: Escherichia coli
Description: as §1, §2

[3] = system: E. coli WT-III [marRΔ74bp]; test: MIC microdilution, E. coli WT-III [marRΔ74bp]; format: cell-based, Escherichia coli
Description: as §1, §2

[4] = system: Proteus vulgaris DSM-2140; test: MIC microdilution, P. vulgaris DSM-2140; format: cell-based; conditions: Proteus vulgaris, DSM2140
Description: as §1, §2

[5] = system: Burkholderia cenocepacia DSM-16553; test: MIC microdilution, Burkholderia cenocepacia DSM-16553; format: cell-based; conditions: DSM16553, larger panel, read-out: MIC Burkholderia cenocepacia DSM-16553
Description: as §1
as §2, with “Cystobactamides and reference drugs were added directly to the cultures in sterile 96-well plates as duplicates and serial dilutions were prepared. Microorganisms were grown on a microplate shaker (750 rpm, 30-37° C., 18-48 h), except S. pneumonia, which was grown at non-shaking conditions (37° C., 5% CO2, 18 h).” left out

[6] = system: Chromobacterium violaceum DSM-30191; test: MIC microdilution, Chromobacterium violaceum DSM-30191; format: cell-based; conditions: DSM30191, larger panel, read-out: MIC Chromobacterium violaceum DSM-30191
Description: as §1
as §2, with “Cystobactamides and reference drugs were added directly to the cultures in sterile 96-well plates as duplicates and serial dilutions were prepared. Microorganisms were grown on a microplate shaker (750 rpm, 30-37° C., 18-48 h), except S. pneumonia, which was grown at non-shaking conditions (37° C., 5% CO2, 18 h).” left out

[7] = system: Escherichia coli MI-4 [gyrA(S83L), parC(S80I)]; test: MIC microdilution, E. coli MI-4 [gyrA(S83L), parC(S80I)]; format: cell-based; conditions: read-out: MIC Escherichia coli MI-4 [gyrA(S83L), parC(S80I)]
Description: as §1
as §2, with “Cystobactamides and reference drugs were added directly to the cultures in sterile 96-well plates as duplicates and serial dilutions were prepared. Microorganisms were grown on a microplate shaker (750 rpm, 30-37° C., 18-48 h), except S. pneumonia, which was grown at non-shaking conditions (37° C., 5% CO2, 18 h).” left out

[8] = system: Escherichia coli DSM-12242 (NAL^R); test: MIC microdilution, E. coli DSM-12242 (NAL^R); format: cell-based; conditions: DSM12242, read-out: MIC Escherichia coli DSM-12242 (NAL^R)
Description: as §1
as §2, with “Cystobactamides and reference drugs were added directly to the cultures in sterile 96-well plates as duplicates and serial dilutions were prepared. Microorganisms were grown on a microplate shaker (750 rpm, 30-37° C., 18-48 h), except S. pneumonia, which was grown at non-shaking conditions (37° C., 5% CO2, 18 h).” left out

[9] = system: Escherichia coli ATCC35218; test: MIC microdilution, E. coli ATCC35218; format: cell-based; conditions: ATCC35218, larger panel, read-out: MIC Escherichia coli ATCC35218
Description: as §1
as §2, with “Cystobactamides and reference drugs were added directly to the cultures in sterile 96-well plates as duplicates and serial dilutions were prepared. Microorganisms were grown on a microplate shaker (750 rpm, 30-37° C., 18-48 h), except S. pneumonia, which was grown at non-shaking conditions (37° C., 5% CO2, 18 h).” left out

[10] = system: Escherichia coli ATCC25922; test: MIC microdilution, E. coli ATCC25922; format: cell-based; conditions: ATCC25922, larger panel, read-out: MIC Escherichia coli ATCC25922
Description: as §1
as §2, with “Cystobactamides and reference drugs were added directly to the cultures in sterile 96-well plates as duplicates and serial dilutions were prepared. Microorganisms were grown on a microplate shaker (750 rpm, 30-37° C., 18-48 h), except S. pneumonia, which was grown at non-shaking conditions (37° C., 5% CO2, 18 h).” left out

[11] = system: Enterobacter aerogenes DSM-30053; test: MIC microdilution, Enterobacter aerogenes DSM-30053; format: cell-based; conditions: Klebsiella aerogenes, DSM30053; larger panel; read-out: MIC Enterobacter aerogenes DSM-30053
Description: as §1
as §2, with “Cystobactamides and reference drugs were added directly to the cultures in sterile 96-well plates as duplicates and serial dilutions were prepared. Microorganisms were grown on a microplate shaker (750 rpm, 30-37° C., 18-48 h), except S. pneumonia, which was grown at non-shaking conditions (37° C., 5% CO2, 18 h).” left out

[12] = system: Klebsiella pneumoniae DSM-30104; test: MIC microdilution, Klebsiella pneumoniae DSM-30104; format: cell-based; conditions: DSM30104, larger panel, read-out: MIC Klebsiella pneumoniae DSM-30104
Description: as §1
as §2, with “Cystobactamides and reference drugs were added directly to the cultures in sterile 96-well plates as duplicates and serial dilutions were prepared. Microorganisms were grown on a microplate shaker (750 rpm, 30-37° C., 18-48 h), except S. pneumonia, which was grown at non-shaking conditions (37° C., 5% CO2, 18 h).” left out

[13] = system: Pseudomonas aeruginosa ATCC27853; test: MIC microdilution, P. aeruginosa ATCC27853; format: cell-based; conditions: Pseudomonas aeruginosa, ATCC27853; larger panel; read-out: MIC Pseudomonas aeruginosa ATCC27853
Description: as §1, §2

[14] = system: Pseudomonas aeruginosa DSM-24599; test: MIC microdilution, P. aeruginosa DSM-24599; format: cell-based; conditions: Pseudomonas aeruginosa, DSM24599; larger panel; read-out: MIC Pseudomonas aeruginosa DSM-24599
Description: as §1, §2

[15] = system: Pseudomonas aeruginosa DSM-46316 (ESBL); test: MIC microdilution, P. aeruginosa DSM-46316 (ESBL); format: cell-based; conditions: Pseudomonas aeruginosa, DSM46316; larger panel; read-out: MIC Pseudomonas aeruginosa DSM-46316 (ESBL)
Description: as §1, §2

[16] = system: Serratia marcescens DSM-30121; test: MIC microdilution, Serratia marcescens DSM-30121; format: cell-based; conditions: Serratia marcescens, DSM30121; larger panel; read-out: MIC Serratia marcescens DSM-30121
Description: as §1, §2

[17] = system: Mycobacterium smegmatis ATCC700084; test: MIC microdilution, Mycobacterium smegmatis ATCC700084; format: cell-based; conditions: Mycolicibacterium smegmatis, ATCC700084; larger panel; read-out: MIC Mycobacterium smegmatis ATCC700084
Description: as §1
as §2, with “Cystobactamides and reference drugs were added directly to the cultures in sterile 96-well plates as duplicates and serial dilutions were prepared. Microorganisms were grown on a microplate shaker (750 rpm, 30-37° C., 18-48 h), except S. pneumonia, which was grown at non-shaking conditions (37° C., 5% CO2, 18 h).” left out

Bacillus subtilis DSM-10 = test: MIC microdilution, Bacillus subtilis DSM-10; format: cell-based; conditions: DSM10, larger panel, read-out: MIC Bacillus subtilis DSM-10
Description: as §1
as §2, with “Cystobactamides and reference drugs were added directly to the cultures in sterile 96-well plates as duplicates and serial dilutions were prepared. Microorganisms were grown on a microplate shaker (750 rpm, 30-37° C., 18-48 h), except S. pneumonia, which was grown at non-shaking conditions (37° C., 5% CO2, 18 h).” left out

[18] = system: Enterococcus faecalis ATCC29212; test: MIC microdilution, Enterococcus faecalis ATCC29212; format: cell-based; conditions: ATCC29212, larger panel, read-out: MIC Enterococcus faecalis ATCC29212
Description: as §1
as §2, with “Cystobactamides and reference drugs were added directly to the cultures in sterile 96-well plates as duplicates and serial dilutions were prepared. Microorganisms were grown on a microplate shaker (750 rpm, 30-37° C., 18-48 h), except S. pneumonia, which was grown at non-shaking conditions (37° C., 5% CO2, 18 h).” left out

[19] = system: Enterococcus faecium DSM-20477; test: MIC microdilution, Enterococcus faecium DSM-20477; format: cell-based; conditions: Enterococcus faecium, DSM20477; larger panel; read-out: MIC Enterococcus faecium DSM-20477
Description: as §1, §2

[20] = system: Candida albicans DSM-1665; test: MIC microdilution, Candida albicans DSM-1665; format: cell-based; conditions: DSM1665, larger panel, read-out: MIC Candida albicans DSM-1665
Description: as §1
as §2, with “Cystobactamides and reference drugs were added directly to the cultures in sterile 96-well plates as duplicates and serial dilutions were prepared. Microorganisms were grown on a microplate shaker (750 rpm, 30-37° C., 18-48 h), except S. pneumonia, which was grown at non-shaking conditions (37° C., 5% CO2, 18 h).” left out

## O=C(O)c1cn(C2CC2)c2cc(N3CCNCC3)c(F)cc2c1=O [CP, Ciprofloxacin, reference compound]
[1]; Gram-negative set, read-out: MIC C. freundii DSM-30039
  MIC: 0.003 µg/mL (≈ 0.00905 µM)
[1]; larger panel, read-out: MIC Citrobacter freundii DSM-30039
  MIC: 0.003 µg/mL (≈ 0.00905 µM)
E. coli DSM-1116; Gram-negative set, read-out: MIC E. coli DSM-1116
  MIC: 0.01 µg/mL (≈ 0.0302 µM)
E. coli DSM-1116; larger panel, read-out: MIC Escherichia coli DSM-1116
  MIC: 0.013 µg/mL (≈ 0.0392 µM)
E. coli WT; Gram-negative set, read-out: MIC E. coli WT
  MIC: 0.013 µg/mL (≈ 0.0392 µM)
E. coli WT; larger panel, read-out: MIC Escherichia coli WT
  MIC: 0.013 µg/mL (≈ 0.0392 µM)
[2]; read-out: MIC E. coli WT-3 [gyrA(S83L, D87G)]
  MIC: 0.8 µg/mL (≈ 2.41 µM)
[2]; read-out: MIC Escherichia coli WT-3 [gyrA(S83L, D87G)]
  MIC: 0.8 to 1.6 µg/mL (≈ 2.41 to 4.83 µM)
[3]; Gram-negative set
  MIC E. coli WT-III [marRΔ74bp]: 0.1 µg/mL (≈ 0.302 µM)
[3]; larger panel
  MIC Escherichia coli WTIII (marRΔ74bp): 0.1 µg/mL (≈ 0.302 µM)
[4]; Gram-negative set, read-out: MIC P. vulgaris DSM-2140
  MIC: 0.01 µg/mL (≈ 0.0302 µM)
[4]; larger panel, read-out: MIC Proteus vulgaris DSM-2140
  MIC: 0.01 µg/mL (≈ 0.0302 µM)
[5]
  MIC: > 6.4 µg/mL
[6]
  MIC: 0.006 to 0.013 µg/mL (≈ 0.0181 to 0.0392 µM)
[7]
  MIC: 0.8 µg/mL (≈ 2.41 µM)
[8]
  MIC: 0.05 µg/mL (≈ 0.151 µM)
[9]
  MIC: 0.013 µg/mL (≈ 0.0392 µM)
[10]
  MIC: 0.006 µg/mL (≈ 0.0181 µM)
[11]
  MIC: 0.1 to 0.2 µg/mL (≈ 0.302 to 0.604 µM)
[12]
  MIC: 0.025 µg/mL (≈ 0.0754 µM)
[13]
  MIC: 0.1 to 0.2 µg/mL (≈ 0.302 to 0.604 µM)
[14]
  MIC: > 6.4 µg/mL
[15]
  MIC: 0.1 µg/mL (≈ 0.302 µM)
[16]
  MIC: 0.1 µg/mL (≈ 0.302 µM)
[17]
  MIC: 0.2 to 0.4 µg/mL (≈ 0.604 to 1.21 µM)
Bacillus subtilis DSM-10
  MIC: 0.1 µg/mL (≈ 0.302 µM)
[18]
  MIC: 0.8 µg/mL (≈ 2.41 µM)
[19]
  MIC: > 6.4 µg/mL
[20]
  MIC: > 6.4 µg/mL
